Test results: patent publication US11591323B2, “Muscarinic agonists as non-steroidal and non-opioid analgesics and methods of use thereof” (Barry University, priority 2019, dated 2023)

System: rat aorta smooth muscle cells (mainly M2, lesser M3)
Experiment: IPX level in primary culture of rat aorta smooth muscle cells
Type: cell-based
Conditions: in words
Protocol: Effects of compounds 6A and 7A on both cAMP and IPX levels were also measured in primary cultures of rat aorta smooth muscle cells that express mainly M2 and to a lesser extent M3 receptors (FIG. 6). […] Receptor expression levels are far lower in tested native tissues than in transfected cell lines and vary among tissues, being highest in the striatum and lowest in the submaxillary gland. Relative expression levels of G-proteins are also known to vary among tissues and cell lines. Thus, it is great to see that the pharmacological profile of the new compounds is conserved despite these variations.
Cell culture and membrane preparation: Chinese hamster ovary (CHO) cells stably transfected with the genes of individual human variants of muscarinic receptors were purchased from Missouri S&T cDNA Resource Center (Rolla, Mo., USA). Fresh primary cell culture of smooth muscle cells (SMC) from rat aorta prepared as previously described was kindly provided by Dr. Lucie Bačáková. […]
Measurements of the production of cAMP and inositol phosphates: Levels of second messengers cAMP and inositol phosphates were determined in radiochemical chromatography assays as described previously. […] Samples were applied to alumina columns (1.5 g of alumina per column), washed with 2 ml ammonium acetate (pH=7.0) and eluted from columns with 4 ml ammonium acetate and measured by liquid scintillation spectrometry. […]

Q: How did the IPX level turn out when C[N+](C)(C)CCOC(N)=O [carbachol, reference compound] was run?
A: increase in IPX level
